Data from US20070134261A1, “Effectors of innate immunity” (priority 2001, published 2007).

System: human bronchial epithelial cells (16HBEo14)
Assay: Induction of IL-8 in HBE cells
Format: cell-based
Details: for IL-8: 8 h
Protocol: The murine macrophage cell line RAW 264.7, THP-1 cells (human monocytes), a human epithelial cell line (A549), human bronchial epithelial cells (16HBEo14), and whole human blood were used. HBE cells were grown in MEM with Earle's. THP-1 cells were grown and maintained in RPMI 1640 medium. The RAW and A549 cell lines were maintained in DMEM supplemented with 10% fetal calf serum. […] DMEM was aspirated from cells grown overnight and replaced with fresh medium. After incubation of the cells with peptide, the release of chemokines into the culture supernatant was determined by ELISA (R&D Systems, Minneapolis, Minn.).

CC[C@H](C)[C@H](N)C(=O)N[C@@H](CC(C)C)C(=O)N1CCC[C@H]1C(=O)N[C@@H](Cc1c[nH]c2ccccc12)C(=O)N[C@@H](CCCCN)C(=O)N[C@@H](Cc1c[nH]c2ccccc12)C(=O)N1CCC[C@H]1C(=O)N[C@@H](Cc1c[nH]c2ccccc12)C(=O)N[C@@H](Cc1c[nH]c2ccccc12)C(=O)N1CCC[C@H]1C(=O)N[C@@H](Cc1c[nH]c2ccccc12)C(=O)N[C@@H](CCCNC(=N)N)C(=O)N[C@@H](CCCNC(=N)N)C(N)=O [SEQ ID NO: 2]
induction of IL-8: significantly induced IL-8
IL-8 (peptide 0.1 μg/ml): 670 ± 155 pg/mL
IL-8 (peptide 1 μg/ml): 712 ± 205 pg/mL
IL-8 (peptide 10 μg/ml): 941 ± 15 pg/mL
IL-8 (peptide 50 μg/ml): 1490 ± 715 pg/mL
